The text below walks through data of US20240415819A1, “MACROCYCLIC COMPOUNDS AS PROTEASOME SUBUNIT BETA TYPE-5 INHIBITORS” (Lead Discovery Center GmbH, priority 2021, published 2024).

Assay [1] deals with T1, β5 subunit of the human immunoproteasome (IPS) (Homo sapiens, UniProt P28062).
T1 construct: purchased Boston Biochem E-370
In words: β5 inhibition assay, human immunoproteasome (Suc-LLVY-AMC). The class given is biochemical. Conditions: IC50 class, Suc-LLVY-AMC substrate. Put shortly: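 Human immunoproteasome (1 nM final) was preincubated 10 min at RT with compound in 100 mM HEPES pH 7.5, 50 mM NaCl, 0.02% SDS, 1 mM DTT. Suc-LLVY-AMC (22.6 μM final) was then added for 4 h at RT in the dark. After stopping with 1 μM bortezomib, AMC fluorescence was read (ex 355/em 460 nm).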

Assay [2] has as its system A549 (human lung carcinoma cell line). In words: Glo assay of A549 cells (Table 3; ProteasomeGlo plating scheme). The class given is cell-based. Conditions: Homo sapiens; A549 cells; read-out: PGLo A549. The method in brief:
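Luminescent read-out of cellular chymotrypsin-like proteasome activity: cells exposed to compound 105 min at 37° C., 5% CO2, then given Suc-LLVY-Glo reagent, shaken 2-5 min and kept dark 10-15 min before reading. Values are IC50 [nM].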

Where only a bound is given, the exact number is not on record here.

As to `Cc1ccc2cc1CNC(=O)[C@H](CCc1ccccc1)NC(=O)[C@@H](NC(=O)OCc1ccccc1)CCCC(=O)N1CCCC(CCO2)C1` (stereo partly drawn) [Compound 195, benzyl ((9S,12S)-5^4-methyl-8,11,16-trioxo-9-phenethyl-4-oxa-7,10-diaza-1(3,1)-piperidina-5(1,3)-benzenacyclohexadecaphane-12-yl)carbamate], the values for the IC50 in assay [1] and in assay [2] were less than 100 nM and 100 to 500 nM, respectively.

Turning to `CNCC(=O)N[C@H]1CC(=O)N2CCCC(CCOc3ccc(C)c(c3)CNC(=O)[C@H](CCc3ccccc3)NC1=O)C2` (stereo partly drawn) [Compound 129, N-((9S,12S)-5^4-methyl-8,11,14-trioxo-9-phenethyl-4-oxa-7,10-diaza-1(3,1)-piperidina-5(1,3)-benzenacyclotetradecaphane-12-yl)-2-(methylamino)acetamide], the IC50 in assay [1] and in assay [2] was less than 100 nM throughout.

`Cc1ccc2cc1CNC(=O)[C@H](CCc1ccccc1)NC(=O)[C@@H](NC(=O)C1(F)CCNCC1)CC(=O)N1CCCC(CCO2)C1` (stereo partly drawn) [Compound 134, 4-fluoro-N-((9S,12S)-5^4-methyl-8,11,14-trioxo-9-phenethyl-4-oxa-7,10-diaza-1(3,1)-piperidina-5(1,3)-benzenacyclotetradecaphane-12-yl)piperidine-4-carboxamide]: the IC50 in assay [1] and in assay [2] was less than 100 nM throughout.

For `CC(=O)N[C@H]1CC(=O)N2CCCC(CCOc3ccc(C)c(c3)CNC(=O)C(CCc3cnccn3)NC1=O)C2` (stereo partly drawn) [Compound 564, N-((12S)-5^4-methyl-8,11,14-trioxo-9-(2-(pyrazin-2-yl)ethyl)-4-oxa-7,10-diaza-1(3,1)-piperidina-5(1,3)-benzenacyclotetradecaphane-12-yl)acetamide], the IC50 in assay [1] and in assay [2] was less than 100 nM each time.

`CO[C@@H](C(=O)N[C@H]1CC(=O)N2CCCC(CCOc3ccc(C)c(c3)CNC(=O)[C@H](CCc3ccccc3)NC1=O)C2)c1ccccc1` (stereo partly drawn) [Compound 86, (2R)-2-methoxy-N-((9S,12S)-5^4-methyl-8,11,14-trioxo-9-phenethyl-4-oxa-7,10-diaza-1(3,1)-piperidina-5(1,3)-benzenacyclotetradecaphane-12-yl)-2-phenylacetamide]: the IC50 in assay [1] and in assay [2] was less than 100 nM each time.

For the compound `Cc1ccc2cc1CNC(=O)[C@H](CCc1ccccc1)NC(=O)[C@@H](NC(=O)[C@@H](N)Cc1ccccc1)CC(=O)N1CCCC(CCO2)C1` (stereo partly drawn) [Compound 179, (2R)-2-amino-N-((9S,12S)-5^4-methyl-8,11,14-trioxo-9-phenethyl-4-oxa-7,10-diaza-1(3,1)-piperidina-5(1,3)-benzenacyclotetradecaphane-12-yl)-3-phenylpropanamide-], the IC50 in assay [1] and in assay [2] was less than 100 nM each time.

Turning to `Cc1ccc2cc1CNC(=O)[C@H](CCc1ccccc1)NC(=O)[C@@H](NC(=O)Cc1cccc(N)c1)CC(=O)N1CCCC(CCO2)C1` (stereo partly drawn) [Compound 127, 2-(3-aminophenyl)-N-((9S,12S)-5^4-methyl-8,11,14-trioxo-9-phenethyl-4-oxa-7,10-diaza-1(3,1)-piperidina-5(1,3)-benzenacyclotetradecaphane-12-yl)acetamide], the IC50 in assay [1] and in assay [2] was less than 100 nM throughout.

With `Cc1ccc2cc1CNC(=O)[C@H](CCc1ccccc1)NC(=O)[C@@H](NC(=O)C1(C)COC1)CC(=O)N1CCCC(CCO2)C1` (stereo partly drawn) [Compound 287, 3-methyl-N-((9S,12S)-5^4-methyl-8,11,14-trioxo-9-phenethyl-4-oxa-7,10-diaza-1(3,1)-piperidina-5(1,3)-benzenacyclotetradecaphane-12-yl)oxetane-3-carboxamide], the IC50 in assay [1] and in assay [2] was less than 100 nM throughout.

Take `Cc1ccc2cc1CNC(=O)[C@H](CCc1ccccc1)NC(=O)[C@@H](NC(=O)CCc1ccc(-c3ccccc3)cc1)CC(=O)N1CCCC(CCO2)C1` (stereo partly drawn) [Compound 176, 3-([1,1′-biphenyl]-4-yl)-N-((9S,12S)-5^4-methyl-8,11,14-trioxo-9-phenethyl-4-oxa-7,10-diaza-1(3,1)-piperidina-5(1,3)-benzenacyclotetradecaphane-12-yl)propanamide]: the IC50 in assay [1] and in assay [2] was less than 100 nM each time.
